In assay [1] the target is recombinant human SGK-1 enzyme (Homo sapiens, UniProt O00141). Briefly: Enzymatic activity assay: SGK-1 substrate peptide phosphorylation (Caliper lab-chip mobility shift). The class given is biochemical. As to conditions: peptide substrate 1 μM, ATP 10 μM, 60 min at 37° C., read-out: IC50 values for inhibition of SGK-1 enzymatic activity.
Assay [2] deals with SGK-1 dependent phosphorylation of GSK3beta in U2OS cells. Briefly: SGK-1 dependent phosphorylation of GSK3beta in U2OS cells overexpressing recombinant SGK-1 and GSK3beta. The class given is cell-based, human. As to conditions: U2OS cells, 6 h incubation, ratio of phosphorylated GSK3beta to total GSK3beta; read-out: IC50 values for inhibition of SGK-1 dependent phosphorylation of GSK3beta in U2OS cells.

Where only a bound is given, the exact number is not on record here.

The term IC50 denotes the concentration needed to halve the response being measured.

Chain of recombinant human SGK-1 enzyme (O00141 whole entry, looked up): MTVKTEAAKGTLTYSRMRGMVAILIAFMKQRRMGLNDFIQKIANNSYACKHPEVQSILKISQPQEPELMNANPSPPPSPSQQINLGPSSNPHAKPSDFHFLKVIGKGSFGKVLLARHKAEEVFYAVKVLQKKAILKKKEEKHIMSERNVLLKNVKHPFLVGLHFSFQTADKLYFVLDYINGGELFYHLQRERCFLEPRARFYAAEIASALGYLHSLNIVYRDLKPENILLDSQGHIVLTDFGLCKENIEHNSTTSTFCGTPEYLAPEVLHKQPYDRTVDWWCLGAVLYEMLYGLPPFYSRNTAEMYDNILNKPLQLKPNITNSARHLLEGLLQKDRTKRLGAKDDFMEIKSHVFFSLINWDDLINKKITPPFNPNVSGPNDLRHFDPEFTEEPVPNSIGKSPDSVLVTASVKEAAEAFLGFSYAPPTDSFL

On to `COc1ccc(Cl)c(S(=O)(=O)Nc2ccc(-c3nc(C)c4cn[nH]c4n3)cc2)c1` [Example 491], for which the values for the IC50 in assay [1] and in assay [2] were 1.8 nM and 2000 nM, respectively.

Take `Nc1n[nH]c2nc(-c3ccc(NS(=O)(=O)c4cc(Cl)ccc4Cl)cc3)nc(OCC(F)(F)F)c12` [Example 195]: the results for the IC50 in assay [1] and in assay [2] were 5.4 nM and 210 nM, respectively.

Regarding `COc1ccc(F)c(S(=O)(=O)Nc2ccc(-c3nc(OC)c4cn[nH]c4n3)cc2)c1` [Example 144], the IC50 is 3.5 nM in assay [1] and 55 nM in assay [2].

Turning to `Cc1nc(-c2ccc(NS(=O)(=O)C3=C(Cl)SCC(Cl)=C3)cc2)nc2[nH]nc(N)c12` [Example 175], the results for the IC50 in assay [1] and in assay [2] were 19 nM and 520 nM, respectively.

In the case of `Cc1n[nH]c2nc(-c3ccc(NS(=O)(=O)c4cc(Cl)ccc4F)cc3)nc(OCC3CNCCO3)c12` (stereo not drawn) [Example 291], the results for the IC50 in assay [1] and in assay [2] were 2.5 nM and 76 nM, respectively.

Turning to `COc1ccc(Cl)c(S(=O)(=O)Nc2ccc(-c3nc(OCC(C)C)c4c(N)n[nH]c4n3)cc2)c1` [Example 332], the IC50 in assay [1] is 27 nM; in assay [2], 190 nM.

In the case of `O=S(=O)(Nc1ccc(-c2nc(O[C@@H]3CCC[C@H]3O)c3cn[nH]c3n2)cc1)c1cc(Cl)ccc1Cl` [Example 88], the IC50 was 6.7 nM in assay [1] and 4500 nM in assay [2].

As for `Cc1ccc(F)c(S(=O)(=O)Nc2ccc(-c3nc(OCCCN)c4c(C)n[nH]c4n3)cc2)c1` [Example 207], the IC50 in assay [1] was below 1.5 nM; in assay [2], 140 nM.

Consider `O=S(=O)(Nc1ccc(-c2nc(OCC3CNCCO3)c3cn[nH]c3n2)cc1)c1cc(Cl)ccc1Cl` (stereo not drawn) [Example 312], for which the IC50 was found to be 6 nM in assay [1] and 130 nM in assay [2].

As for `COc1ccc(Cl)c(S(=O)(=O)Nc2ccc(-c3nc(OCCCN)c4cn[nH]c4n3)cc2)c1` [Example 203], the IC50 in assay [1] is below 1.5 nM; in assay [2] it was 160 nM.

`Cc1n[nH]c2nc(-c3ccc(NS(=O)(=O)c4cc5c(cc4Cl)OCCO5)cc3)ncc12` [Example 103]: the IC50 is 2.3 nM in assay [1] and 9100 nM in assay [2].

Regarding `COCCc1nc(-c2ccc(NS(=O)(=O)c3cc(C)ccc3C#N)cc2)nc2[nH]nc(N)c12` [Example 513], the IC50 in assay [1] was 68 nM; in assay [2] it was 300 nM.

`Cc1ccc(C#N)c(S(=O)(=O)Nc2ccc(-c3nc(OCC(C)C)c4c(N)n[nH]c4n3)cc2)c1` [Example 333]: the IC50 in assay [1] came to 14 nM; in assay [2], 1300 nM.

Turning to `O=S(=O)(Nc1ccc(-c2nc(O[C@H]3CCCC(O)C3)c3cn[nH]c3n2)cc1)c1cc(Cl)ccc1Cl` (stereo partly drawn) [Example 85], the IC50 in assay [1] came out at 4.1 nM; in assay [2], 1500 nM.

In the case of `Cc1n[nH]c2nc(-c3ccc(NS(=O)(=O)c4ccccc4F)cc3)nc(OCC3CNCCO3)c12` (stereo not drawn) [Example 289], the IC50 stood at 23 nM in assay [1] and 200 nM in assay [2].

Consider `COc1ccc(Cl)c(S(=O)(=O)Nc2ccc(-c3nc(OCC(F)(F)F)c4c(N)n[nH]c4n3)cc2)c1` [Example 194], for which the results for the IC50 in assay [1] and in assay [2] were 2.3 nM and 100 nM, respectively.

With `Nc1n[nH]c2nc(-c3ccc(NS(=O)(=O)c4cc(Cl)sc4Cl)cc3)nc(C3CC3)c12` [Example 500], the IC50 in assay [1] came to 2.7 nM; in assay [2] it was 250 nM.

As to `NCCCOc1nc(-c2ccc(NS(=O)(=O)c3cccc(Cl)c3Cl)cc2)nc2[nH]ncc12` [Example 64], the IC50 is 4.2 nM in assay [1] and 560 nM in assay [2].

On to `COCCc1nc(-c2ccc(NS(=O)(=O)c3cc(OC)ccc3F)cc2)nc2[nH]nc(N)c12` [Example 504], for which the IC50 in assay [1] was determined as 12 nM; in assay [2], 300 nM.

Turning to `O=S(=O)(Nc1ccc(-c2nc(OCC3CNCCO3)c3cn[nH]c3n2)cc1)c1cc(Cl)ccc1F` (stereo not drawn) [Example 305], the half-inhibitory concentration (IC50) in assay [1] stood at 10 nM; in assay [2], 89 nM.

Turning to `COc1ccc(Cl)c(S(=O)(=O)Nc2ccc(-c3nc(OCCCC(N)=O)c4cn[nH]c4n3)cc2)c1` [Example 113], the IC50 in assay [1] is 3 nM; in assay [2] it was 3600 nM.
